How the values were obtained:
[1] = In vitro phase II metabolism with mouse hepatic microsomes and SAM, UDPGA or PAPS; format: in vitro ADME; conditions: PZ-DHA 1.1 µM, SAM, 1 h, 37 °C
Description: Figure 3 PZ-DHA undergoes phase II metabolism in the presence of freshly prepared mouse liver microsomes. PZ-DHA (1.1 µM) was incubated with S-(5′-adenosyl)-L-methionine chloride dihydrochloride (1 mM), […] (2 mM) and alamethicin (25 µg/mL) and adenosine 3′-phosphate 5′-phosphosulfate lithium salt, hydrate (0.5 mM) in the presence of mouse liver microsomal enzymes (3 mg/mL) at 37 °C for 1 h. (A) Tri-methylated-PZ-DHA (4,4′,6′-tri-O-methyl-phloridzin docosahexaenoate) (MW = 788.88 g/mol), (B) phloridzin docosahexaenoate-4-O-glucuronide (MW = 923.02 g/mol) and phloridzin docosahexaenoate-4′-O-glucuronide (MW = 923.02 g/mol), and (C) sulfated-PZ-DHA (phloridzin docosahexaenoate-4,4′-di-O-sulphide) metabolite (MW = 906.20 g/mol) were identified.
Mouse hepatic microsomes were freshly isolated from the livers of male C57BL/6 mice, and the entire extraction procedure was carried out at 4 °C. Mouse livers were minced and homogenized in KCl/sucrose phosphate buffer (0.154 M KCl, 0.25 M sucrose in 50 mM potassium phosphate buffer (K2HPO4/KH2PO4) (PPB), pH 7.5). […] The protein concentration was determined using a Bradford assay (R^2 = 1.00), and microsomes were stored at − 80 °C.
Potential in vitro phase I and phase II metabolites of PZ-DHA were detected by incubating PZ-DHA in the presence of freshly-prepared mouse hepatic microsome preparations. Phase I metabolites were determined by incubating 1.1 µM PZ-DHA with 100 mM NADPH in the presence of mouse hepatic microsomes for 1 h at 37 °C. Phase II methylation, glucuronidation, and sulphation of PZ-DHA was determined by incubating 1.1 µM PZ-DHA with 1 mM SAM, 2 mM UDPGA, and 0.5 mM PAPS, respectively, in the presence of freshly prepared mouse hepatic microsome for 1 h at 37 °C (Supplementary information Tables S1–S4). […]
PZ-DHA and/or PZ-DHA metabolites in malignant/non-malignant epithelial cell lysates, in vitro microsome enzyme reaction mixtures, and mouse serum aliquots were determined using UPLC-ESI–MS/MS instrument (Waters Limited, Mississauga, ON, Canada). […]

[2] = In vitro phase I metabolism with mouse hepatic microsomes and NADPH; format: in vitro ADME; conditions: PZ-DHA 1.1 µM, 100 mM NADPH, 1 h, 37 °C
Description: Figure 2 PZ-DHA undergoes phase I metabolism in the presence of freshly prepared mouse liver microsomes. PZ-DHA (1.1 µM) was incubated with 100 mM NADPH in the presence of mouse liver microsome for 1 h at 37 °C. Metabolites from PZ-DHA (A) hydrolysis, (B) and (C) hydroxylation, and (D) epoxidation were identified.
Mouse hepatic microsomes were freshly isolated from the livers of male C57BL/6 mice, and the entire extraction procedure was carried out at 4 °C. Mouse livers were minced and homogenized in KCl/sucrose phosphate buffer (0.154 M KCl, 0.25 M sucrose in 50 mM potassium phosphate buffer (K2HPO4/KH2PO4) (PPB), pH 7.5). Cell/tissue debris was separated out by centrifuging homogenized livers at 12,000×g for 22 min at 4 °C. The supernatant was collected and centrifuged at 100,000×g for 70 min at 4 °C. The pellet was gently rinsed using 50 mM PPB and resuspended in glycerol/phosphate buffer (20% glycerol (v/v), 80% 0.1 M PPB pH 7.5). The protein concentration was determined using a Bradford assay (R^2 = 1.00), and microsomes were stored at − 80 °C.
Potential in vitro phase I and phase II metabolites of PZ-DHA were detected by incubating PZ-DHA in the presence of freshly-prepared mouse hepatic microsome preparations. Phase I metabolites were determined by incubating 1.1 µM PZ-DHA with 100 mM NADPH in the presence of mouse hepatic microsomes for 1 h at 37 °C. Phase II methylation, glucuronidation, and sulphation of PZ-DHA was determined by incubating 1.1 µM PZ-DHA with 1 mM SAM, 2 mM UDPGA, and 0.5 mM PAPS, respectively, in the presence of freshly prepared mouse hepatic microsome for 1 h at 37 °C (Supplementary information Tables S1–S4). To assess the efficiency of the metabolic process, controls (no PZ-DHA control, no mouse hepatic microsome control and no co-factor control) were incubated in parallel to the test. Reactions were terminated by adding a mixture of 4 mL ice-cold acetonitrile:acetone (80:20) containing 0.05 mg/mL quercetin as the internal standard. Proteins were precipitated by incubating the reaction mixture at 4 °C overnight and separated by centrifuging at 14,000 × g for 15 min at 4 °C. Supernatants were concentrated under nitrogen flush, filtered and PZ-DHA and/or PZ-DHA metabolites were identified using a UPLC-ESI–MS/MS system (Waters Limited, Mississauga, ON, Canada).
(§1) PZ-DHA and/or PZ-DHA metabolites in malignant/non-malignant epithelial cell lysates, in vitro microsome enzyme reaction mixtures, and mouse serum aliquots were determined using UPLC-ESI–MS/MS instrument (Waters Limited, Mississauga, ON, Canada). All mass spectroscopic analyses were performed using mass scan (full-scan, identification of unknowns) and single ion monitoring (SIM; quantification of PZ, DHA, PZ-DHA, and quercetin) modes of a Waters H-class UPLC separations module coupled with a Micromass Quattro micro API MS/MS system and MassLynx V4.0 control software. An Allure biphenyl column (100 mm × 2.1 mm, 1.8 μm, Restek Pure Chromatography, Bellefonte, PA, USA) and a flow rate of 0.3 mL/min were employed. ESI- mode with a capillary voltage of 3000 V and a nebulizer gas (N2) temperature of 375 °C were used. A volume of 2 µL sample was injected.

[3] = Serum pharmacokinetics after intraperitoneal injection; format: in vivo, Balb/c female mice; conditions: PZ-DHA 100 mg/kg intraperitoneal, serum
Description: Figure 4 Intraperitoneal administration of PZ-DHA results in absorption into the systemic circulation of Balb/c female mice. PZ-DHA (100 mg/kg) was administered by intraperitoneal injection to Balb/c female mice. Blood collection was performed and serum was separated. PZ-DHA was identified and quantified using a calibration curve (R^2 = 0.99) generated using a standard series of PZ-DHA concentrations made in mouse serum. PZ-DHA concentration was plotted against time. The elimination rate of PZ-DHA was determined using a semi-log curve of PZ-DHA concentration vs. time curve.
(§2) Pharmacokinetic parameters and in vivo generation of PZ-DHA metabolites were studied using Balb/c female mice. Mice were randomly divided into six groups (n = 4/group) and PZ-DHA (100 mg/kg) was administered by intraperitoneal injection. For each mouse, a single blood collection was performed by cardiac puncture at one of six different time points (t = 15, 30, 60, 90, 120, and 240 min). At the end of blood collection, mice were euthanized by cervical dislocation and organs (liver, lungs, kidneys, spleen, and brain) were harvested. Blood samples were allowed to clot by leaving undisturbed at room temperature for 1 h, and serum was separated by centrifuging at 2000×g for 10 min at 4 °C. The serum was carefully removed and stored on ice until further processing. Serum proteins were precipitated by incubating an aliquot of serum with a mixture of acetonitrile:acetone (80:20) containing 0.1 mg/mL quercetin (internal standard) at 4 °C overnight. The supernatant was separated by centrifuging at 14,000×g for 10 min at 4 °C. Excess solvent was evaporated using nitrogen flush and mixed with methanol and filtered. PZ-DHA-metabolites in the filtrate were identified using a UPLC-ESI–MS/MS (Waters Limited, Mississauga, ON, Canada). Organs were homogenized in PBS (1:5 w/v). Supernatants were collected by centrifugation at 14,000 × g for 15 min at 4 °C. Proteins were precipitated by incubating in acetonitrile:acetone (80:20) containing 0.1 mg/mL quercetin (internal standard) at 4 °C overnight. Supernatants were treated as explained above, and PZ-DHA and/or PZ-DHA-metabolites were identified.
A calibration curve (R^2 = 0.99) generated using a standard series of PZ-DHA concentrations prepared in mouse serum (spiked with 0.1 mg/mL quercetin) was used for the quantification of PZ-DHA. The average PZ-DHA concentrations were plotted against time. The maximum serum concentration of serum (Cmax) and the time to reach Cmax (Tmax) were read directly from the graph. The linear trapezoidal method was used to calculate the area under the curve (AUC) from t = 0 to infinity, the biological half-life of PZ-DHA (t1/2), determined using the plotted curve in Graphpad Prism software (version 5; La Jolla, CA, USA). The clearance following IP administration was determined by non-compartmental analysis using the relationship CL/F = D/AUC. The elimination rate constant λ was determined by linear regression of the elimination phase of the semi-log transformed concentration versus time curve. The t1/2 was calculated using the formula 0.693/λ and the volume of distribution Vd/F from the formula Vd/F = CL/(F*λ).

[4] = tested on: mammary carcinoma cells, including MDA-MB-231 and 4T1; parameters: method as in PMID 31473253; conditions: 20 µM for PZ-DHA; cited from earlier work
[5] = tested on: mammary carcinoma cells and mammary epithelial cells; assay: Cellular uptake assay, all cell lines together; format: cell-based, human and mouse; conditions: all cell lines, 20 μM, 72 h
Description: Figure 1 Conjugation of PZ with DHA increases the cellular uptake and stability of PZ and DHA. The cells were treated with 20 μM of PZ, DHA or PZ-DHA and cultured for 72 h at 37 °C. Cells were harvested and washed thoroughly using cold PBS. Cells were lysed in cold acetone containing 0.05 mg/mL quercetin, and cell lysates were collected by centrifugation and analyzed by using UPLC-ESI-MS/MS. (A) mean % cellular uptake of PZ, DHA and PZ-DHA. (B) fold increase in intracellular PZ and DHA when conjugated. ANOVA multiple means statistical comparison method was performed and differences among means were compared using Tukey’s test; *p < 0.05. (MDA-MB-231 p = 0.008; MDA-MB-468 p = 0.01; 4T1 p = 0.02; MCF-7 p = 0.01; MCF-10A p = 0.0005).
Cells were seeded at a density of 3 × 10^5 cells (MDA-MB-231, MDA-MB-468, MCF-7, and MCF-10A) or 1 × 10^5 cells (4T1) /T-75 flask. The cells were cultured overnight to promote cell adhesion. Adherent cells were treated with a sub-cytotoxic concentration (20 μM) of PZ, DHA or PZ-DHA and cultured for 72 h at 37 °C. The supernatant was carefully removed, and cell monolayers were washed with cold PBS. Cells were harvested using TrypLE Express and washed thoroughly with cold PBS. The cell pellet was resuspended in 3 mL of cold acetone containing 0.05 mg/mL quercetin as the internal standard, and incubated overnight at 4 °C. Cell lysates were collected by centrifugation at 14,000×g for 15 min at 4 °C and samples were concentrated by evaporating acetone under a stream of nitrogen gas. Dry pellets were reconstituted in methanol and filtered. The sample was analyzed using a UPLC/ESI/MS system. The percentage cell uptake of the total dose was quantified using standard curves of PZ (R^2 = 0.99), DHA (R^2 = 0.98) or PZ-DHA (R^2 = 0.99) made in methanol.
as §1

human plasma proteins = conditions: ref Boulton et al.; cited from earlier work
[6] = Tissue distribution of PZ-DHA and metabolites after intraperitoneal injection; format: in vivo, Balb/c female mice; conditions: PZ-DHA 100 mg/kg intraperitoneal
Description: Figure 5 PZ-DHA and metabolites were detected in various organs of PZ-DHA-treated Balb/c female mice. PZ-DHA (100 mg/kg) was administered by intraperitoneal injection to Balb/c female mice and liver, lungs, kidneys, spleen and brain were harvested. Organs were homogenized and PZ-DHA in (A) liver, kidneys, lungs, spleen, and brain was identified and quantified using a calibration curve. The abundance of (B) 4,4′,6′-tri-O-methyl-phloridzin docosahexaenoate in liver, kidneys, lungs, and serum) and (C) phloridzin docosahexaenoate-4,4′-di-O-sulphide in the liver was determined in PZ-DHA equivalence.
as §2

Compound: CC/C=C\C/C=C\C/C=C\C/C=C\C/C=C\C/C=C\CCC(=O)OC[C@H]1O[C@@H](Oc2cc(O[C@@H]3O[C@H](C(=O)O)[C@@H](O)[C@H](O)[C@H]3O)cc(O)c2C(=O)CCc2ccc(O)cc2)[C@H](O)[C@@H](O)[C@@H]1O [phloridzin docosahexaenoate-4′-O-glucuronide]
- phase II metabolite of PZ-DHA identified [1]: identified

Compound: CC/C=C\C/C=C\C/C=C\C/C=C\C/C=C\C/C=C\CCC(=O)OC[C@H]1O[C@@H](Oc2cc(O)cc(O)c2C(=O)CCc2ccc(O[C@@H]3O[C@H](C(=O)O)[C@@H](O)[C@H](O)[C@H]3O)cc2)[C@H](O)[C@@H](O)[C@@H]1O [phloridzin docosahexaenoate-4-O-glucuronide]
- phase II metabolite of PZ-DHA identified [1]: identified

Compound: tri-epoxy-phloridzin docosahexaenoate
- phase I metabolite of PZ-DHA identified [2]: identified

Compound: CC/C=C\C/C=C\C/C=C\C/C=C\C/C=C\C/C=C\CCC(=O)O [DHA, docosahexaenoic acid, reference compound]
- phase I metabolite of PZ-DHA identified [2]: identified
- phase I metabolite in serum after PZ-DHA [3]: detection
- migration and invasion of mammary carcinoma cells [4]: to a lesser extent than PZ-DHA
- cellular uptake (as a % of the dose), in words [5]: very low

Compound: O=C(CCc1ccc(O)cc1)c1c(O)cc(O)cc1O[C@@H]1O[C@H](CO)[C@@H](O)[C@H](O)[C@H]1O [PZ, phloridzin]
- phase I metabolite of PZ-DHA identified [2]: identified
- phase I metabolite in serum after PZ-DHA [3]: detection
- migration and invasion of mammary carcinoma cells [4]: to a lesser extent than PZ-DHA
- cellular uptake (as a % of the dose), in words [5]: very low

Compound: O=c1c(O)c(-c2ccc(O)c(O)c2)oc2cc(O)cc(O)c12 [quercetin]
- bound to human plasma proteins (human plasma proteins): 99.1%
- freely available in the plasma (human plasma proteins): 0.9%

Compound: CC/C=C\C/C=C\C/C=C\C/C=C\C/C=C\C/C=C\CCC(=O)OC[C@H]1O[C@@H](Oc2cc(O)cc(O)c2C(=O)CCc2ccc(O)c(O)c2)[C@H](O)[C@@H](O)[C@@H]1O [3-hydroxy-phloridzin docosahexaenoate]
- phase I metabolite of PZ-DHA identified [2]: identified

Compound: CC/C=C\C/C=C\C/C=C\C/C=C\C/C=C\C/C=C\CCC(=O)OC[C@H]1O[C@@H](Oc2cc(OC)cc(OC)c2C(=O)CCc2ccc(OC)cc2)[C@H](O)[C@@H](O)[C@@H]1O [4,4′,6′-tri-O-methyl-phloridzin docosahexaenoate]
- phase II metabolite of PZ-DHA identified [1]: identified
- time at which the metabolite reached the maximum concentration, post-injection ([6]; all organs except for serum): < 1 h
- metabolite detection in tissue after PZ-DHA ([6]; liver, lungs, and kidneys): detected
- metabolite concentration in serum throughout the experimental period ([6]; serum): remained constant
- metabolite detection in tissue after PZ-DHA ([6]; spleen or brain): not found

Compound: O=C(CCc1ccc(O)c(O)c1)c1c(O)cc(O)cc1O[C@@H]1O[C@H](CO)[C@@H](O)[C@H](O)[C@H]1O [3-hydroxy-phloridzin]
- phase I metabolite of PZ-DHA identified [2]: identified

— PMC7721897, “Metabolism and pharmacokinetics of a novel polyphenol fatty acid ester phloridzin docosahexaenoate in Balb/c female mice” (Scientific Reports, 2020)
